Where two headings read alike, the source gives them in different places.
Tests used:
Type in all cases: biochemical
MCH-5 = MCH-5 (Homo sapiens, UniProt Q14790); assay: Fluorescence enzyme assay, IC50 determination, Mch5
Protocol: (§1) Fluorescence enzyme assays detecting the activity of the compounds of Formula 1 utilizing the recombinant ICE and CPP32 enzymes are performed essentially according to Thornberry et al. (Nature, 356:768:774 (1992)) and Nicholson et al. (Nature, 376:37–43 (1995)) respectively, (herein incorporated by reference) in 96 well microtiter plates. The substrate is Acetyl-Tyr-Val-Ala-Asp-amino-4-methylcoumarin (AMC) for the ICE assay and Acetyl-Asp-Glu-Val-Asp-amino-4-methylcoumarin for the CPP32, Mch2, Mch3 and Mch5 assays. Enzyme reactions are run in ICE buffer (25 mM HEPES, 1 mM EDTA, 0.1% CHAPS, 10% sucrose, pH 7.5) containing 2 mM DTT at room temperature in duplicate.
(§2) The enzyme and the compound of Formula I to be assayed are allowed to preincubate in the microtitre plate wells for 30 minutes at room temperature prior to the addition of substrate to initiate the reaction. Fluorescent AMC product formation is monitored for one hour at room temperature by measuring the fluorescence emission at 460 nm using an excitation wavelength of 360 nm. The fluorescence change in duplicate (control) wells are averaged and the mean values are plotted as a function of inhibitor concentration to determine the inhibitor concentration producing 50% inhibition (IC50). The results of this assay are set forth below in Table 1 and in Table 3 (for Table 3, see Examples 11 through 52).
(§3) The reference compound for this assay was Cbz-ValAlaAsp-H and the values are denoted in Table 1 as “Reference”.

CPP32 = molecular target: T1, CPP32 (Homo sapiens, UniProt P42574); assay: Fluorescence enzyme assay, IC50 determination, CPP32
T1 sequence (P42574 29-175 limits assumed): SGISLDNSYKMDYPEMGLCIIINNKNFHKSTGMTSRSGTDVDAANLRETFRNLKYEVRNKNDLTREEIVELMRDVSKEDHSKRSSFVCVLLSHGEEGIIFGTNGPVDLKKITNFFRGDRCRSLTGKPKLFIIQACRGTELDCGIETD
T1 sequence (P42574 176-277 limits assumed): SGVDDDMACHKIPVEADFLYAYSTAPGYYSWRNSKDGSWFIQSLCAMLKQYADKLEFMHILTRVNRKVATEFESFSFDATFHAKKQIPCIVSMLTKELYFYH
Protocol: as §1, §2, §3

MCH-2 = molecular target: T2, MCH-2 (Homo sapiens, UniProt P55212); assay: Fluorescence enzyme assay, IC50 determination, Mch2
T2 sequence (P55212 24-179 limits assumed): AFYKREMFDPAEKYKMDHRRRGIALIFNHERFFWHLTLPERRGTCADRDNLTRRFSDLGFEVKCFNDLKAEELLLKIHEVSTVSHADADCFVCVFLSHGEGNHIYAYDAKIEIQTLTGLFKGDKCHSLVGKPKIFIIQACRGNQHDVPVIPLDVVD
T2 sequence (P55212 194-293 limits assumed): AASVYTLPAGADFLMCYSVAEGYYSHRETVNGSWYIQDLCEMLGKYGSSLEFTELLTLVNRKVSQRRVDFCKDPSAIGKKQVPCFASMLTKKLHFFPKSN
Protocol: as §1, §2, §3

MCH-3 = molecular target: T3, MCH-3 (Homo sapiens, UniProt P55210); assay: Fluorescence enzyme assay, IC50 determination, Mch3
T3 sequence (P55210 24-198 limits assumed): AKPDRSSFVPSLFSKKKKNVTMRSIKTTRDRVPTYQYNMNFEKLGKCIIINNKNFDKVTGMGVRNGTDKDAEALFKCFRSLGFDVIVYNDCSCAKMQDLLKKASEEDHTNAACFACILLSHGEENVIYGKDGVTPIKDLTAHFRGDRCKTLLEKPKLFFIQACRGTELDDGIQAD
T3 sequence (P55210 207-303 limits assumed): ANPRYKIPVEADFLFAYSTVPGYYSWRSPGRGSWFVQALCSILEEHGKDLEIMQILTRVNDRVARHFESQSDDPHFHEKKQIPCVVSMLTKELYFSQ
Protocol: as §1, §2, §3

mICE = molecular target: T4, mICE (Mus musculus, UniProt P29452); assay: Fluorescence enzyme assay, IC50 determination, ICE
T4 sequence (P29452 123-296 limits assumed): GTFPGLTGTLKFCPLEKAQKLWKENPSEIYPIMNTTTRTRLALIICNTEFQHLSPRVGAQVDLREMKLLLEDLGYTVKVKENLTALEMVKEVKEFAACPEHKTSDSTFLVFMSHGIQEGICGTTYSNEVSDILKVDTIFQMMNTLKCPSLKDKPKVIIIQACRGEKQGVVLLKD
T4 sequence (P29452 315-402 limits assumed): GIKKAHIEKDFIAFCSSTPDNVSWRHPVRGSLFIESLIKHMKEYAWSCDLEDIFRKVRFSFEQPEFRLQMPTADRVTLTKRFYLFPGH
Protocol: as §1, §2, §3

[1] = Ac-DEVD-AMC substrate, 30 min preincubation, room temperature, read-out: MCH-5 IC50
[2] = recombinant enzyme, Ac-DEVD-AMC substrate, 30 min preincubation, room temperature, read-out: CPP32 IC50
[3] = Ac-DEVD-AMC substrate, 30 min preincubation, room temperature, read-out: MCH-2 IC50
[4] = Ac-DEVD-AMC substrate, 30 min preincubation, room temperature, read-out: MCH-3 IC50
[5] = recombinant enzyme, Ac-YVAD-AMC substrate, 30 min preincubation, room temperature, read-out: mICE IC50
[6] = Table 3, method of Preparation 3A, read-out: MCH5 I50
[7] = Table 3, method of Preparation 3A, read-out: CPP32 I50
[8] = Table 3, method of Preparation 3A, read-out: MCH2 I50
[9] = Table 3, method of Preparation 3A, read-out: MCH3 I50
[10] = Table 3, method of Preparation 3A, read-out: mICE I50

Sequence of MCH-5 (Q14790 217-374 limits assumed, species assumed): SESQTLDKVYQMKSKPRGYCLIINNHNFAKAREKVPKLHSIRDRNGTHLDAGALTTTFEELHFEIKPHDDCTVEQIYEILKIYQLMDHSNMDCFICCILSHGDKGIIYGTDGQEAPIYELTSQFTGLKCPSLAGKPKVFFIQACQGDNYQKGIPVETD
Sequence of MCH-5 (Q14790 385-479 limits assumed, species assumed): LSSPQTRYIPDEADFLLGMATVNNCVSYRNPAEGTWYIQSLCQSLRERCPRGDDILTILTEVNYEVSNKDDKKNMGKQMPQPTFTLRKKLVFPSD

Row | Compound | IC50 (MCH-5; [1]) | IC50 (CPP32; [2]) | IC50 (MCH-2; [3]) | IC50 (MCH-3; [4]) | IC50 (mICE; [5]) | IC50 (MCH-5; [6]) | IC50 (CPP32; [7]) | IC50 (MCH-2; [8]) | IC50 (MCH-3; [9]) | IC50 (mICE; [10])
1 | CC(C)C[C@H](NC(=O)CNc1cccc2ccccc12)C(=O)N[C@H](C=O)CC(=O)O [Example 8, (3S)-3-[N-((1-Naphthylamino)Acetyl)Leucinyl]Amino-4-Oxobutanoic Acid] | 0.0076 µM | 0.013 µM | 0.037 µM | 1.32 µM | 0.033 µM | – | – | – | – | –
2 | CC(C)C[C@H](NC(=O)COc1cccc2c1OC(C)(C)C2)C(=O)N[C@H](C=O)CC(=O)O [Example 10, (3S)-3-[N-((2,3-Dihydro-2,2-Dimethyl-Benzofuranyloxy)Acetyl)Leucinyl]Amino-4-Oxobutanoic Acid] | 6.34 µM | 0.241 µM | 13.1 µM | 2.32 µM | 6.34 µM | – | – | – | – | –
3 | CC(C)C[C@H](NC(=O)CCc1cccc2ccccc12)C(=O)N[C@H](C=O)CC(=O)O [Example 11] | – | – | – | – | – | 12.2 µM | 1.59 µM | 4.19 µM | 8.78 µM | 1.86 µM
4 | CC(C)C[C@H](NC(=O)COc1cccc2ccccc12)C(=O)N[C@H](C=O)CC(=O)O [Example 12] | – | – | – | – | – | 0.821 µM | 0.139 µM | 0.846 µM | 1.95 µM | 0.597 µM
5 | CC(C)C[C@H](NC(=O)COc1ccc2ccccc2c1)C(=O)N[C@H](C=O)CC(=O)O [Example 13] | – | – | – | – | – | > 10 µM | 0.944 µM | 18.6 µM | 8.87 µM | 2.57 µM
6 | CC(C)C[C@H](NC(=O)CSc1cccc2ccccc12)C(=O)N[C@H](C=O)CC(=O)O [Example 16] | – | – | – | – | – | 7.42 µM | 0.195 µM | 1.43 µM | 1.74 µM | 2.75 µM
7 | CC(C)C[C@H](NC(=O)CSc1ccc2ccccc2c1)C(=O)N[C@H](C=O)CC(=O)O [Example 17] | – | – | – | – | – | 11 µM | 0.269 µM | 3.16 µM | 2.52 µM | 0.792 µM
8 | CC(C)C[C@H](NC(=O)CCCc1ccc2ccccc2c1)C(=O)N[C@H](C=O)CC(=O)O [Example 18] | – | – | – | – | – | > 50 µM | 2.76 µM | 14.5 µM | 18.2 µM | 1.8 µM
9 | CC(C)C[C@H](NC(=O)CCC(=O)c1cccc2ccccc12)C(=O)N[C@H](C=O)CC(=O)O [Example 19] | – | – | – | – | – | 11.2 µM | 0.967 µM | 11.8 µM | 11.3 µM | 0.408 µM
10 | CC(C)C[C@H](NC(=O)C(C)CC(=O)c1cccc2ccccc12)C(=O)N[C@H](C=O)CC(=O)O (some centres unmarked) [Example 20] | – | – | – | – | – | 3.25 µM | 9.88 µM | 24.9 µM | 29.8 µM | 4.55 µM
11 | CC(C)C[C@H](NC(=O)CCC(=O)c1ccc2ccccc2c1)C(=O)N[C@H](C=O)CC(=O)O [Example 21] | – | – | – | – | – | 5.23 µM | 1.42 µM | 10.3 µM | 7.43 µM | 0.543 µM
12 | CC(C)C[C@H](NC(=O)CCOc1ccc2ccccc2c1)C(=O)N[C@H](C=O)CC(=O)O [Example 23] | – | – | – | – | – | 15.2 µM | 0.91 µM | 5.9 µM | 9.65 µM | 1.32 µM
13 | CC(C)C[C@H](NC(=O)CCSc1cccc2ccccc12)C(=O)N[C@H](C=O)CC(=O)O [Example 24] | – | – | – | – | – | 16.3 µM | 0.412 µM | 2.72 µM | 3.6 µM | 0.563 µM
14 | CC(C)C[C@H](NC(=O)CCSc1ccc2ccccc2c1)C(=O)N[C@H](C=O)CC(=O)O [Example 25] | – | – | – | – | – | 15 µM | 0.837 µM | 1.62 µM | 5.89 µM | 0.611 µM
15 | Cc1ccc2ccccc2c1OCC(=O)N[C@@H](CC(C)C)C(=O)N[C@H](C=O)CC(=O)O [Example 26] | – | – | – | – | – | 4.14 µM | 0.375 µM | 32.4 µM | 4.16 µM | 0.843 µM
16 | COc1ccc(OCC(=O)N[C@@H](CC(C)C)C(=O)N[C@H](C=O)CC(=O)O)c2ccccc12 [Example 27] | – | – | – | – | – | 1.45 µM | 0.263 µM | 22.6 µM | 4.08 µM | 0.831 µM
17 | CC(C)C[C@H](NC(=O)COc1ccc(Cl)c2ccccc12)C(=O)N[C@H](C=O)CC(=O)O [Example 28] | – | – | – | – | – | 1.69 µM | 0.231 µM | 12 µM | 3.38 µM | 0.429 µM
18 | CC(C)C[C@H](NC(=O)COc1c(Cl)cc(Cl)c2ccccc12)C(=O)N[C@H](C=O)CC(=O)O [Example 29] | – | – | – | – | – | 3.04 µM | 0.357 µM | 21.4 µM | 3.61 µM | 0.141 µM
19 | CC(C)C[C@H](NC(=O)COc1nccc2ccccc12)C(=O)N[C@H](C=O)CC(=O)O [Example 30] | – | – | – | – | – | > 50 µM | 1.57 µM | > 50 µM | 34.7 µM | 44.2 µM
20 | CC(C)C[C@H](NC(=O)COc1ccnc2ccccc12)C(=O)N[C@H](C=O)CC(=O)O [Example 31] | – | – | – | – | – | > 50 µM | 0.232 µM | > 50 µM | 4.57 µM | 35.3 µM
21 | CC(C)C[C@H](NC(=O)COc1cccc2ncccc12)C(=O)N[C@H](C=O)CC(=O)O [Example 32] | – | – | – | – | – | 4.02 µM | 0.412 µM | > 50 µM | 3.85 µM | 5.25 µM
22 | CC(C)C[C@H](NC(=O)COc1cccc2cnccc12)C(=O)N[C@H](C=O)CC(=O)O [Example 33] | – | – | – | – | – | 3.64 µM | 0.407 µM | 42.7 µM | 3.48 µM | 5.14 µM
23 | CC(C)C[C@H](NC(=O)COc1cccc2cccnc12)C(=O)N[C@H](C=O)CC(=O)O [Example 34] | – | – | – | – | – | 2.24 µM | 0.147 µM | 12.5 µM | 1.51 µM | 13.7 µM
24 | CC(C)C[C@H](NC(=O)C(C)Oc1ccccc1)C(=O)N[C@H](C=O)CC(=O)O (some centres unmarked) [Example 36] | – | – | – | – | – | > 10 µM | 1.77 µM | > 10 µM | 8.27 µM | 20.4 µM
25 | CC(C)C[C@H](NC(=O)CCOc1ccccc1)C(=O)N[C@H](C=O)CC(=O)O [Example 37] | – | – | – | – | – | > 10 µM | 0.419 µM | > 50 µM | 6.04 µM | 9.42 µM
26 | CC(C)C[C@H](NC(=O)COc1ccccc1)C(=O)N[C@H](C=O)CC(=O)O [Example 38] | – | – | – | – | – | > 10 µM | 3.4 µM | > 50 µM | > 10 µM | > 10 µM
27 | CC(C)C[C@H](NC(=O)COc1ccccc1-c1ccccc1)C(=O)N[C@H](C=O)CC(=O)O [Example 39] | – | – | – | – | – | 1.71 µM | 0.095 µM | 0.717 µM | 2.02 µM | 0.636 µM
28 | CC(C)C[C@H](NC(=O)COc1cccc(-c2ccccc2)c1)C(=O)N[C@H](C=O)CC(=O)O [Example 40] | – | – | – | – | – | 3.86 µM | 0.311 µM | 14.5 µM | 3.75 µM | 1.1 µM

— US7157430B2, “(Substituted)acyl dipeptidyl inhibitors of the ICE/CED-3 family of cysteine proteases” (Idun Pharmaceuticals, Inc., priority 1998, dated 2007)
